From ChEMBL document CHEMBL1153701, “Synthesis and evaluation of antiallodynic and anticonvulsant activity of novel amide and urea derivatives of valproic acid analogues” (2009) come the findings set out here.

SMILES strings stand for the structures. Active and inactive are the calls of the source. No cut-off for these calls is given here.

Assay type in all cases: functional, organism-based
For assay [1], the system named is Mus musculus. The experiment in a line: Antiepileptic activity in CF1 mouse assessed as inhibition of subcutaneous pentylenetetrazole-induced seizures at 30 mg/kg, ip after 4 hrs. On the set-up: dose 30 mg/kg.
Assay [2] relates to Mus musculus. The experiment in a line: Antiepileptic activity in CF1 mouse assessed as inhibition of subcutaneous pentylenetetrazole-induced seizures at 300 mg/kg, ip after 4 hrs. Set-up: dose 300 mg/kg.
Assay [3] deals with Mus musculus. The experiment in a line: Antiepileptic activity in CF1 mouse assessed as inhibition of maximal electroshock-induced seizures at 300 mg/kg, ip after 4 hrs. Set-up: dose 300 mg/kg. Background: The maximal electroshock test induces tonic seizures with an electrical stimulus.
For assay [4], the system named is Mus musculus. The experiment in a line: Antiepileptic activity in CF1 mouse assessed as inhibition of subcutaneous pentylenetetrazole-induced seizures at 100 mg/kg, ip after 0.5 hrs. Set-up: dose 100 mg/kg.
The test system of assay [5] is Mus musculus. The experiment in a line: Antiepileptic activity in CF1 mouse assessed as inhibition of maximal electroshock-induced seizures at 30 mg/kg, ip after 0.5 hrs. On the set-up: dose 30 mg/kg.
The subject of assay [6] is Mus musculus. The experiment in a line: Antiepileptic activity in CF1 mouse assessed as inhibition of maximal electroshock-induced seizures at 100 mg/kg, ip after 4 hrs. Set-up: dose 100 mg/kg.
The test system of assay [7] is Mus musculus. The experiment in a line: Antiepileptic activity in CF1 mouse assessed as inhibition of maximal electroshock-induced seizures at 30 mg/kg, ip after 4 hrs. On the set-up: dose 30 mg/kg.
Assay [8] relates to Mus musculus. The experiment in a line: Neurotoxicity in CF1 mouse assessed as protection against motor impairment at 100 mg/kg, ip after 4 hrs by rotarod test. Set-up: dose 100 mg/kg.
The test system of assay [9] is Mus musculus. The experiment in a line: Antiepileptic activity in CF1 mouse assessed as inhibition of maximal electroshock-induced seizures at 100 mg/kg, ip after 0.5 hrs. Set-up: dose 100 mg/kg.
Assay [10] has as its system Mus musculus. The experiment in a line: Neurotoxicity in CF1 mouse assessed as protection against motor impairment at 300 mg/kg, ip after 4 hrs by rotarod test. On the set-up: dose 300 mg/kg. (Falling from the rotarod earlier than controls is read as motor impairment.)
The test system of another assay is Rattus norvegicus. The experiment in a line: Antiallodynic activity in rat assessed as protection against spinal nerve ligation-induced neuropathic pain at 80 mg/kg, ip after 30 mins. On the set-up: dose 80 mg/kg.
Assay [11] relates to Mus musculus. The experiment in a line: Antiepileptic activity in CF1 mouse assessed as inhibition of subcutaneous pentylenetetrazole-induced seizures at 100 mg/kg, ip after 4 hrs. On the set-up: dose 100 mg/kg.
The test system of assay [12] is Mus musculus. The experiment in a line: Neurotoxicity in CF1 mouse assessed as protection against motor impairment at 30 mg/kg, ip after 4 hrs by rotarod test. Set-up: dose 30 mg/kg.
For assay [13], the system named is Mus musculus. The experiment in a line: Antiepileptic activity in CF1 mouse assessed as inhibition of maximal electroshock-induced seizures at 300 mg/kg, ip after 0.5 hrs. Set-up: dose 300 mg/kg.
Assay [14] relates to Mus musculus. The experiment in a line: Antiepileptic activity in CF1 mouse assessed as inhibition of subcutaneous pentylenetetrazole-induced seizures at 30 mg/kg, ip after 0.5 hrs. Set-up: dose 30 mg/kg.
The test system of assay [15] is Mus musculus. The experiment in a line: Neurotoxicity in CF1 mouse assessed as protection against motor impairment at 30 mg/kg, ip after 0.5 hrs by rotarod test. On the set-up: dose 30 mg/kg.
The test system of assay [16] is Mus musculus. The experiment in a line: Antiepileptic activity in CF1 mouse assessed as inhibition of subcutaneous pentylenetetrazole-induced seizures at 300 mg/kg, ip after 0.5 hrs. Set-up: dose 300 mg/kg.
The subject of assay [17] is Mus musculus. The experiment in a line: Neurotoxicity in CF1 mouse assessed as protection against motor impairment at 100 mg/kg, ip after 0.5 hrs by rotarod test. On the set-up: dose 100 mg/kg.
Assay [18] deals with Mus musculus. The experiment in a line: Neurotoxicity in CF1 mouse assessed as protection against motor impairment at 300 mg/kg, ip after 0.5 hrs by rotarod test. On the set-up: dose 300 mg/kg.

For the compound `CNC(=O)C(C(C)C)C(C)C`, the outcome in the assay with Mus musculus [1], in the assay with Mus musculus [2], with Mus musculus [3], with Mus musculus [4], in the assay on Mus musculus [5] and in the assay with Mus musculus [6] was inactive. Further, the outcome in the assay on Mus musculus [7], in the assay with Mus musculus [8], with Mus musculus [9], in the assay with Mus musculus [10], in the assay with Rattus norvegicus and with Mus musculus [11] was inactive. Further, the outcome in the assay on Mus musculus [12], with Mus musculus [14] and with Mus musculus [15] was inactive. Also, in the assay on Mus musculus [13], the outcome was Active.
Regarding `CCCC(CCC)C(=O)NC(N)=O`, the outcome in the assay on Mus musculus [1], in the assay with Mus musculus [2], with Mus musculus [5], in the assay on Mus musculus [6], in the assay with Mus musculus [7] and in the assay on Mus musculus [8] was inactive. Moreover, the result in the assay with Mus musculus [11] and in the assay on Mus musculus [14] was inactive. The result in the assay with Mus musculus [3], in the assay on Mus musculus [4], in the assay with Mus musculus [9], in the assay with Mus musculus [16] and with Mus musculus [13] was Active.
Regarding `CCCC(CC)C(N)=O` (stereo unspecified), the outcome in the assay on Mus musculus [1], with Mus musculus [2], with Mus musculus [4], with Mus musculus [5], in the assay with Mus musculus [6] and with Mus musculus [7] was inactive. Further, the outcome in the assay on Mus musculus [8], with Mus musculus [10], in the assay with Mus musculus [11], in the assay on Mus musculus [12], with Mus musculus [17] and in the assay with Mus musculus [14] was inactive. Further, in the assay on Mus musculus [15], the result was inactive. For the same compound, the result in the assay on Mus musculus [3], in the assay on Mus musculus [16] and with Mus musculus [13] was Active.
Consider `CCC(C(N)=O)C(C)C` (stereo unspecified), for which the outcome in the assay with Mus musculus [1], with Mus musculus [2], in the assay on Mus musculus [3], with Mus musculus [4], in the assay on Mus musculus [5] and in the assay with Mus musculus [6] was inactive. In addition, the result with Mus musculus [7], with Mus musculus [8], in the assay on Mus musculus [9], with Mus musculus [16], in the assay on Mus musculus [10] and in the assay on Mus musculus [11] was inactive. The outcome with Mus musculus [12], in the assay on Mus musculus [17], with Mus musculus [14] and with Mus musculus [15] was inactive. Moreover, the result with Mus musculus [13] was Active.
`CCC(C)C(CC)C(=O)NC` (stereo unspecified): the outcome in the assay on Mus musculus [1], in the assay on Mus musculus [2], with Mus musculus [3], in the assay on Mus musculus [4], in the assay with Mus musculus [5] and in the assay on Mus musculus [6] was inactive. Moreover, the result in the assay on Mus musculus [7], with Mus musculus [8], in the assay on Mus musculus [9], in the assay on Mus musculus [10], in the assay with Rattus norvegicus and with Mus musculus [11] was inactive. In addition, the outcome with Mus musculus [12], with Mus musculus [13], in the assay on Mus musculus [14] and in the assay with Mus musculus [15] was inactive. Also, in the assay on Mus musculus [16], the result was Active.
On to `CCC(CC(C)C)C(N)=O` (stereo unspecified), for which the result in the assay with Mus musculus [1], with Mus musculus [3], with Mus musculus [4], in the assay on Mus musculus [5], in the assay with Mus musculus [6] and with Mus musculus [7] was inactive. Further, the outcome in the assay on Mus musculus [8], in the assay with Mus musculus [9], with Mus musculus [10], in the assay with Rattus norvegicus, in the assay with Mus musculus [11] and with Mus musculus [12] was inactive. For the same compound, the result with Mus musculus [17], in the assay with Mus musculus [14] and in the assay on Mus musculus [15] was inactive. Besides, the result with Mus musculus [2], with Mus musculus [18] and in the assay on Mus musculus [13] was Active.
In the case of `CC(C)C(C(=O)NC(N)=O)C(C)C`, the outcome with Mus musculus [1], with Mus musculus [2], with Mus musculus [5], in the assay on Mus musculus [6], in the assay with Mus musculus [7] and with Mus musculus [8] was inactive. Further, the result with Mus musculus [11], in the assay with Mus musculus [12] and in the assay with Mus musculus [14] was inactive. Besides, the outcome in the assay on Mus musculus [3], with Mus musculus [4], in the assay with Mus musculus [18], with Mus musculus [16], in the assay on Mus musculus [10] and in the assay with Mus musculus [13] was Active.
Regarding `CC(C)C(C(N)=O)C(C)(C)C` (stereo unspecified), the outcome with Mus musculus [1], in the assay with Mus musculus [5], in the assay with Mus musculus [6], in the assay with Mus musculus [7], in the assay on Mus musculus [8] and with Mus musculus [11] was inactive. Besides, the result in the assay on Mus musculus [12], with Mus musculus [14] and with Mus musculus [15] was inactive. The outcome in the assay on Mus musculus [2], with Mus musculus [3], in the assay on Mus musculus [4], in the assay on Mus musculus [18], in the assay with Mus musculus [16] and in the assay on Mus musculus [10] was Active. Moreover, the outcome with Mus musculus [13] was Active.
As for `CCCCC(CC)C(=O)NC` (stereo unspecified), the outcome in the assay with Mus musculus [1], with Mus musculus [2], in the assay on Mus musculus [4], with Mus musculus [5], with Mus musculus [6] and in the assay with Mus musculus [7] was inactive. Moreover, the result in the assay on Mus musculus [8], with Mus musculus [10], with Rattus norvegicus, in the assay with Mus musculus [11], with Mus musculus [12] and with Mus musculus [17] was inactive. The result with Mus musculus [14] and with Mus musculus [15] was inactive. The outcome in the assay with Mus musculus [3], in the assay on Mus musculus [18], with Mus musculus [16] and with Mus musculus [13] was Active.
